The text below walks through data of patent US12172983B2, “EGFR inhibitors” (Blueprint Medicines Corporation, priority 2019, dated 2024).

Read-outs that look alike come from different tables or passages of the source. Some results are limits rather than exact numbers.

Assay [1] concerns phosphorylation of EGFR (Tyr1068) in NCI-H1975 cell line that harbors the EGFR L858R T790M mutations. Put plainly: NCI-H1975 pEGFR AlphaLISA assay. The format is cell-based. The note with it: 4-5 hours incubation, read-out: Ext pEGFR H1975. A digest of the protocol:
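NCI-H1975 cells (EGFR L858R/T790M) seeded overnight, then treated with compound for 4-5 h at 37 °C/5% CO2. After lysis, p-EGFR (Tyr1068) quantified by AlphaLISA SureFire Ultra with acceptor then donor beads; IC50 fitted from percent inhibition versus log concentration.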

In assay [2] the target is T1, EGFR (L858R T790M C797S) (Homo sapiens, UniProt P00533, C797S/L858R/T790M).
T1 construct: purchased SignalChem E10-122VG
Nature of the assay: Biochemical EGFR inhibition assay (Caliper mobility shift), EGFR LRTMCS mutant. As to conditions: inhibitory activity against EGFR LRTMCS mutant; apparent IC50; read-out: Ext Enz LRTMCS. A digest of the protocol:
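Kinase reactions proceed at 25° C. to 10%–20% conversion of total peptide, are terminated with 35 mM EDTA, and the phosphopeptide is resolved from substrate by electrophoretic mobility shift. Apparent IC50 values come from plotting percent activity against log compound concentration.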

Setting [3] is: Homo sapiens, NCI-H1975, inhibition of phosphorylation of mutant EGFR in NCI-H1975 cells.
[4] abbreviates: inhibition of phosphorylation of mutant EGFR in NCI-H1975 cells.

As to `CO[C@H]1CN(c2nccc(Nc3cc4c(C(C)C)ccc(N5CC(CS(C)(=O)=O)C5)c4cn3)n2)C[C@@H](F)[C@H]1O` (racemic) [Compound 147, (3S,4R,5R)-3-fluoro-1-(4-((5-isopropyl-8-(3-((methylsulfonyl)methyl)azetidin-1-yl)isoquinolin-3-yl)amino)pyrimidin-2-yl)-5-methoxypiperidin-4-ol and (3R,4S,5S)-3-fluoro-1-(4-((5-isopropyl-8-(3-((methylsulfonyl)methyl)azetidin-1-yl)isoquinolin-3-yl)amino)pyrimidin-2-yl)-5-methoxypiperidin-4-ol], the values for the IC50 in assay [1] (setting [3]) and in assay [2] were 10.1 to 20 nM and no more than 15 nM, respectively.
For `CC(C)c1cnc(N2CC(CS(C)(=O)=O)C2)c2cnc(Nc3ccnc(N4C[C@H](F)[C@@H](F)C4)n3)cc12` (single isomer, unassigned) [Compound 9, N-{2-[(3R,4R)-3,4-difluoropyrrolidin-1-yl]pyrimidin-4-yl}-8-[3-(methanesulfonylmethyl)azetidin-1-yl]-5-(propan-2-yl)-2,7-naphthyridin-3-amine or N-{2-[(3S,4S)-3,4-difluoropyrrolidin-1-yl]pyrimidin-4-yl}-8-[3-(methanesulfonylmethyl)azetidin-1-yl]-5-(propan-2-yl)-2,7-naphthyridin-3-amine], the IC50 in assay [1] (setting [4]) was 10.1 to 20 nM; in assay [2] it was no more than 15 nM.
Regarding `C[C@@H]1[C@@H](CS(C)(=O)=O)CN1c1cccc2cc(Nc3ccnc(N4C[C@H](F)[C@H](O)C(C)(C)C4)n3)ncc12` (single isomer, unassigned) [Compound 30, (4S,5R)-5-fluoro-1-[4-({8-[(2R,3S)-3-(methanesulfonylmethyl)-2-methylazetidin-1-yl]isoquinolin-3-yl}amino)pyrimidin-2-yl]-3,3-dimethylpiperidin-4-ol or (4R,5S)-5-fluoro-1-[4-({8-[(2R,3S)-3-(methanesulfonylmethyl)-2-methylazetidin-1-yl]isoquinolin-3-yl}amino)pyrimidin-2-yl]-3,3-dimethylpiperidin-4-ol], the IC50 is no more than 10 nM in assay [1] (setting [3]) and no more than 15 nM in assay [2].
The like results for `CC(C)c1ncc(N2C[C@H](CS(C)(=O)=O)[C@H]2C)c2cnc(Nc3ccnc(N4CC[C@H](OC5CC5)[C@H](F)C4)n3)cc12` [Compound 224, N-{2-[(3R,4S)-4-cyclopropoxy-3-fluoropiperidin-1-yl]pyrimidin-4-yl}-8-[(2R,3S)-3-(methanesulfonylmethyl)-2-methylazetidin-1-yl]-5-(propan-2-yl)-2,6-naphthyridin-3-amine] were, in that order, no more than 10 nM and 15.1 to 20 nM.
Consider `CO[C@@H]1[C@H](O)CN(c2nccc(Nc3cc4c(C(C)C)ccc(N5CC(CS(C)(=O)=O)C5)c4cn3)n2)CC1(F)F` (single isomer, unassigned) [Compound 291, (3R,4R)-5,5-difluoro-1-[4-({8-[3-(methanesulfonylmethyl)azetidin-1-yl]-5-(propan-2-yl)isoquinolin-3-yl}amino)pyrimidin-2-yl]-4-methoxypiperidin-3-ol or (3S,4S)-5,5-difluoro-1-[4-({8-[3-(methanesulfonylmethyl)azetidin-1-yl]-5-(propan-2-yl)isoquinolin-3-yl}amino)pyrimidin-2-yl]-4-methoxypiperidin-3-ol], for which the IC50 is no more than 10 nM in assay [1] (setting [4]) and no more than 15 nM in assay [2].
The matching figures for `CO[C@H]1CCN(c2nccc(Nc3cc4c(C(C)C)cnc(N5CC(C[S@@](C)(=N)=O)[C@H]5C)c4cn3)n2)C[C@H]1F` (single isomer, unassigned) [Compound 108, (1S)-(((2R)-1-(6-((2-((3R,4S)-3-fluoro-4-methoxypiperidin-1-yl)pyrimidin-4-yl)amino)-4-isopropyl-2,7-naphthyridin-1-yl)-2-methylazetidin-3-yl)methyl)(imino)(methyl)-λ^6-sulfanone or (1R)-(((2R)-1-(6-((2-((3R,4S)-3-fluoro-4-methoxypiperidin-1-yl)pyrimidin-4-yl)amino)-4-isopropyl-2,7-naphthyridin-1-yl)-2-methylazetidin-3-yl)methyl)(imino)(methyl)-λ^6-sulfanone]: no more than 10 nM and no more than 15 nM.
For the compound `[2H]C([2H])([2H])O[C@@H]1CCN(c2nccc(Nc3cc4c(C(C)C)ccc(N5CC(CS(C)(=O)=O)C5)c4cn3)n2)C[C@@H]1F` (single isomer, unassigned) [Compound 82], the values for the IC50 in assay [1] (setting [3]) and in assay [2] were no more than 10 nM and no more than 15 nM, respectively.
As to `CN[C@H]1CCN(c2nccc(Nc3cc4c(C(C)C)ccc(N5C[C@H](CS(C)(=O)=O)[C@H]5C)c4cn3)n2)CC1(F)F` (single isomer, unassigned) [Compound 309, N-{2-[(4S)-3,3-difluoro-4-(methylamino)piperidin-1-yl]pyrimidin-4-yl}-8-[(2R,3S)-3-(methanesulfonylmethyl)-2-methylazetidin-1-yl]-5-(propan-2-yl)isoquinolin-3-amine or N-{2-[(4R)-3,3-difluoro-4-(methylamino)piperidin-1-yl]pyrimidin-4-yl}-8-[(2R,3S)-3-(methanesulfonylmethyl)-2-methylazetidin-1-yl]-5-(propan-2-yl)isoquinolin-3-amine], the figures for the IC50 in assay [1] (setting [3]) and in assay [2] were no more than 10 nM and 15.1 to 20 nM, respectively.
Take `[2H]C([2H])([2H])O[C@@H]1CCN(c2nccc(Nc3cc4c(C(C)C)ncc(N5C[C@H](CS(C)(=O)=O)[C@H]5C)c4cn3)n2)C[C@@H]1F` (single isomer, unassigned) [Compound 162, N-{2-[(3R,4S)-3-fluoro-4-(^2H3)methoxypiperidin-1-yl]pyrimidin-4-yl}-8-[(2R,3S)-3-(methanesulfonylmethyl)-2-methylazetidin-1-yl]-5-(propan-2-yl)-2,6-naphthyridin-3-amine or N-{2-[(3S,4R)-3-fluoro-4-(^2H3)methoxypiperidin-1-yl]pyrimidin-4-yl}-8-[(2R,3S)-3-(methanesulfonylmethyl)-2-methylazetidin-1-yl]-5-(propan-2-yl)-2,6-naphthyridin-3-amine]: the IC50 is no more than 10 nM in assay [1] (setting [4]) and no more than 15 nM in assay [2].
With `CO[C@H]1CCN(c2nccc(Nc3cc4c(C(C)C)ncc(N5C[C@H](CS(C)(=O)=O)[C@H]5C)c4cn3)n2)C[C@@H]1O` (single isomer, unassigned) [Compound 104, (3S,4S)-1-(4-(5-isopropyl-8-((2R,3S)-2-methyl-3-(methylsulfonylmethyl)azetidin-1-yl)-2,6-naphthyridin-3-ylamino)pyrimidin-2-yl)-4-methoxypiperidin-3-ol or (3R,4R)-1-(4-(5-isopropyl-8-((2R,3S)-2-methyl-3-(methylsulfonylmethyl)azetidin-1-yl)-2,6-naphthyridin-3-ylamino)pyrimidin-2-yl)-4-methoxypiperidin-3-ol], the IC50 is 10.1 to 20 nM in assay [1] (setting [3]) and no more than 15 nM in assay [2].
Take `CO[C@@H]1CN(c2nccc(Nc3cc4c(C(C)C)ccc(N5C[C@H](CS(C)(=O)=O)[C@H]5C)c4cn3)n2)CC[C@@H]1O` (single isomer, unassigned) [Compound 99, (3R,4S)-1-[4-({8-[(2R,3S)-3-(methanesulfonylmethyl)-2-methylazetidin-1-yl]-5-(propan-2-yl)isoquinolin-3-yl}amino)pyrimidin-2-yl]-3-methoxypiperidin-4-ol or (3S,4R)-1-[4-({8-[(2R,3S)-3-(methanesulfonylmethyl)-2-methylazetidin-1-yl]-5-(propan-2-yl)isoquinolin-3-yl}amino)pyrimidin-2-yl]-3-methoxypiperidin-4-ol]: the IC50 is 10.1 to 20 nM in assay [1] (setting [3]) and no more than 15 nM in assay [2].
The matching figures for `C[C@@H]1[C@@H](CS(C)(=O)=O)CN1c1ccc(C(F)(F)F)c2cc(Nc3ccnc(N4CC[C@@H](O)[C@@](C)(F)C4)n3)ncc12` (single isomer, unassigned) [Compound 222]: no more than 10 nM and no more than 15 nM.
The matching figures for `CC(C)c1ccc(N2CC(CS(C)(=O)=O)C2)c2cnc(Nc3ccnc(N4CC[C@](C)(O)C[C@@H]4C)n3)cc12` (single isomer, unassigned) [Compound 44, (2R,4R)-1-[4-({8-[3-(methanesulfonylmethyl)azetidin-1-yl]-5-(propan-2-yl)isoquinolin-3-yl}amino)pyrimidin-2-yl]-2,4-dimethylpiperidin-4-ol or (2S,4S)-1-[4-({8-[3-(methanesulfonylmethyl)azetidin-1-yl]-5-(propan-2-yl)isoquinolin-3-yl}amino)pyrimidin-2-yl]-2,4-dimethylpiperidin-4-ol]: no more than 10 nM and no more than 15 nM.
Take “(R)-ethyl({1-[3-({2-[(3S,4R)-3-fluoro-4-methoxypiperidin-1-yl]pyrimidin-4-yl}amino)-5-(propan-2-yl)isoquinolin-8-yl]azetidin-3-yl}methyl)imino-λ^6-sulfanone or (S)-ethyl({1-[3-({2-[(3S,4R)-3-fluoro-4-methoxypiperidin-1-yl]pyrimidin-4-yl}amino)-5-(propan-2-yl)isoquinolin-8-yl]azetidin-3-yl}methyl)imino-λ^6-sulfanone [Compound 272]”: the figures for the IC50 in assay [1] (setting [4]) and in assay [2] were no more than 10 nM and no more than 15 nM, respectively.
Regarding `CC(C)c1cnc(N2C[C@H](CS(C)(=O)=O)[C@H]2C)c2cnc(Nc3ccnc(N4CC[C@](C)(O)[C@H](F)C4)n3)cc12` (single isomer, unassigned) [Compound 135], the IC50 in assay [1] (setting [3]) was no more than 10 nM; in assay [2], no more than 15 nM.
